Values of other authors in patent US20250026710A1, “PROCESS FOR PREPARING A BENZOATE SALT OF A 1-(3-AMINOPYRROLIDINE-1-CARBONYL)-3,4-DIPHENYLBENZENE COMPOUND” (Astex Pharmaceuticals, Inc., priority 2021, published 2025).
Where a name gives a salt, the structure may show the parent alone.

Assays:
[1] = rats, dose 32 mg/5 mL/kg; listed as benzoic acid salt of Compound (A)
[2] = under the tested conditions of WO 2021/095835

Cmax [1]: 2680 nM | Tmax [1]: 2.7 h
SMILES: CC(C)(O)Cc1ccc(-c2ccc(C(=O)N3CC[C@H](N)C3)cc2-c2ccc(C#N)c(F)c2)c(F)c1 [benzoate salt of Compound (A)]
solid stability [2]: superior solid stability and maintains its purity up to four weeks
